# Laboratory results published in US4613610A, “Cholesterol biosynthesis inhibiting pyrazole analogs of mevalonolactone and its derivatives” (Sandoz Pharmaceuticals Corp., priority 1985, dated 1986).
# Read-outs that look alike come from different tables or passages of the source.
# Columns and labels:
# HMG-CoA reductase = biological target: T1, HMG-CoA reductase (Rattus norvegicus, UniProt P51639); assay: Test A. In Vitro Microsomal Assay of HMG-CoA Reductase Inhibition; format: biochemical, rat (male Sprague-Dawley rat liver microsomes)
# T1 construct: the microsomes are the source of the HMG-CoA reductase enzyme; from tissue; host or cells: liver microsomes of male Sprague-Dawley rats (150-225 g)
# T1 sequence (P51639 1-887): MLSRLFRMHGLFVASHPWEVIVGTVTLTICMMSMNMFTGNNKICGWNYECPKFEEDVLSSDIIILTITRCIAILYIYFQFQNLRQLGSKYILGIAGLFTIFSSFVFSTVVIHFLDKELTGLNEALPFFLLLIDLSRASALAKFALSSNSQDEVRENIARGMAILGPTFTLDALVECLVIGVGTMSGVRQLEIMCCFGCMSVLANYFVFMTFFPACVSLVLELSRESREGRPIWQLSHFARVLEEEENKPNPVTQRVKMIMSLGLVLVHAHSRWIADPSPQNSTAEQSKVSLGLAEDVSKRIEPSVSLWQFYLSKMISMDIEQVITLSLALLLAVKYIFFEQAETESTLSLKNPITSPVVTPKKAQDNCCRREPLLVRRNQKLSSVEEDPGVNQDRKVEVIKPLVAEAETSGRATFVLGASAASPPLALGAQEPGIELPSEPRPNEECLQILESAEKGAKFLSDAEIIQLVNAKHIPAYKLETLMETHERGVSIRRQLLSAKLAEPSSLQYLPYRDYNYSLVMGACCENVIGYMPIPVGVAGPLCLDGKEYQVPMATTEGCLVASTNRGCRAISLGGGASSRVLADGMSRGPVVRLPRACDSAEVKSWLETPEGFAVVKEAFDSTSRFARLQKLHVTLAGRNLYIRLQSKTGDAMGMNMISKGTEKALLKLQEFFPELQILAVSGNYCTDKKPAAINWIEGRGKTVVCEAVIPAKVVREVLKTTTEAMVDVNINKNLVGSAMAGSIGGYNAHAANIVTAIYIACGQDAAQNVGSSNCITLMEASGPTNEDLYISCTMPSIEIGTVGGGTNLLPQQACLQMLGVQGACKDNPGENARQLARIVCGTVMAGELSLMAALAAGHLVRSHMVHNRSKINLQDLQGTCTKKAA
# Protocol: Test A. In Vitro Microsomal Assay of HMG-CoA Reductase Inhibition:
# 200 μl. aliquots (1.08-1.50 mg./ml.) of rat liver microsomal suspensions, freshly prepared from male Sprague-Dawley rats (150-225 g. body weight), in Buffer A with 10 mmol. dithiothreitol are incubated with 10 μl. of a solution of the test substance in dimethylacetamide and assayed for HMG-CoA reductase activity as described in Ackerman et al., J. Lipid Res. 18, 408-413 (1977), the concentration of the test substance in the assay system being 0.0001-2,000 μmolar. In the assay the microsomes are the source of the HMG-CoA reductase enzyme which catalyzes the reduction of HMG-CoA to mevalonate. The assay employs a chloroform extraction to separate the product, [^14 C]mevalonolactone, formed by the HMG-CoA reductase recution of the substrate, [^14 C]HMG-CoA. [^3 H]mevalonolactone is added as an internal reference. Inhibition of HMG-CoA reductase is calculated from the decrease in specific activity ([^14 C/^3 H]mevalonate) of test groups compared to controls.
# IC50 is the concentration of the test substance in the assay system calculated or observed to produce a 50% inhibition of HMG-CoA reductase activity.
# [1] = test system: 3β-hydroxysterol synthesis (cholesterol biosynthesis); assay: Test B. In Vivo Cholesterol Biosynthesis Inhibition Test; design: species or system rat (male Wistar Royal Hart); conditions: Rattus norvegicus, read-out: ED50 (50% inhibition of 3β-hydroxysterol synthesis)
# Protocol: In vivo studies utilize male Wistar Royal Hart rats weighing 150±20 g. which have been kept for 7-10 days on an altered light cycle (6:30 A.M.-6:30 P.M. dark) housed two per cage and fed powdered Purina Rat Chow and water ad libitum. Three hours before the diurnal maximum of cholesterol synthesis at mid-dark, the rats are orally administered the test substance (e.g., 0.01-200 mg./kg. body weight) dissolved or as a suspension in 0.5% carboxymethylcellulose in a volume of 1 ml./100 g. body weight. Controls receive vehicle alone. One hour after receiving the test substance (or the vehicle alone), the rats are injected intraperitoneally with about 25 μCi/100 g. body weight of sodium [1-^14 C]acetate 1-3 mCi/mmol. Two hours after mid-dark, blood samples are obtained under sodium hexobarbitol anesthesia, and the serum is separated by centrifugation.
# Serum samples are saponified and neutralized, and the 3β-hydroxysterols are precipitated with digitonin basically as described in Sperry et al., J. Biol. Chem. 187, 97 (1950). The [^14 C]digitonides are then counted by liquid scintillation spectrometry. After correcting for efficiencies, the results are calculted in nCi (nanocuries)of 3β-hydroxysterol formed per 100 ml. of serum. Inhibition of 3β-hydroxysterol synthesis is calculated from the reduction in the nCi of 3β-hydroxysterols formed from test groups compared to controls.
# ED50 is the dose of the test substance calculated or observed to produce a 50% inhibition of 3β-hydroxysterol synthesis.
# [2] = rat liver microsomal suspensions, test substance 0.0001-2,000 μmolar, calculated or observed, read-out: IC50 (50% inhibition of HMG-CoA reductase activity)
# [3] = male rats, oral, in 0.5% carboxymethylcellulose, [1-14C]acetate i.p. 1 h later, serum, calculated or observed
IC50 (HMG-CoA reductase; [2]),SMILES,IC50 (HMG-CoA reductase),"ED50 ([1]; po, 1 h)","ED50 [1, 3]"
0.26 µM,"CC(C)c1c(/C=C/[C@@H]2C[C@@H](O)CC(=O)O2)c(-c2ccc(F)cc2)nn1-c1ccccc1 (relative stereo) [Example 11, (E)-Trans-6-(2'-[3""-(4'""-fluorophenyl)-5""-(1'""-methylethyl)-1""-phenyl-1H-pyrazol-4""-yl]ethenyl)-4-hydroxy-3,4,5,6-tetrahydro-2H-pyran-2-one]",–,–,–
0.04 µM,"CC(C)n1nc(-c2ccccc2)c(-c2ccc(F)cc2)c1/C=C/[C@@H](O)C[C@@H](O)CC(=O)O (relative stereo) [Example 7, Sodium erythro-(E)-3,5-dihydroxy-7-[4'-(4""-fluorophenyl)-1'-(1""-methylethyl)-3'-phenyl-1H-pyrazol-5'-yl]hept-6-enoate]",–,–,0.06 mg/kg
0.02 µM,"CC(C)c1nn(-c2ccccc2)c(-c2ccc(F)cc2)c1/C=C/[C@@H](O)C[C@@H](O)CC(=O)O (relative stereo) [Example 14, Sodium erythro-(±)-(E)-3,5-dihydroxy-7-[5'-(4""-fluorophenyl)-3'-(1""-methylethyl)-1'-phenyl-1H-pyrazol-4'-yl]hept-6-enoate]",–,–,0.013 mg/kg

# Second part, the molecule before the results:
SMILES,IC50 (HMG-CoA reductase; [2]),IC50 (HMG-CoA reductase),"ED50 ([1]; po, 1 h)","ED50 [1, 3]"
"CC[C@H](C)C(=O)O[C@H]1C[C@@H](C)C=C2C=C[C@H](C)[C@H](CC[C@@H]3C[C@@H](O)CC(=O)O3)[C@H]21 [Mevinolin, reference compound]",–,0.14 µM,0.41 mg/kg,–
"CC[C@H](C)C(=O)O[C@H]1CCC=C2C=C[C@H](C)[C@H](CC[C@@H]3C[C@@H](O)CC(=O)O3)[C@H]21 [Compactin, reference compound]",–,–,–,3.5 mg/kg
"CC(C)n1nc(-c2ccccc2)c(-c2ccc(F)cc2)c1/C=C\[C@@H]1C[C@@H](O)CC(=O)O1 [Example 2, (Z)-Trans-6S-(2'-[4""-(4'""-fluorophenyl)-1""-(1'""-methylethyl)-3""-phenyl-1H-pyrazol-5""-yl]ethenyl)-4R-hydroxy-3,4,5,6-tetrahydro-2H-pyran-2-one]",103 µM,–,–,–
"CC(C)n1nc(-c2ccccc2)c(-c2ccc(F)cc2)c1/C=C/[C@@H](O)C[C@@H](O)CC(=O)O [Example 3, Sodium erythro-(E)-3R,5S-dihydroxy-7-[4'-(4""-fluorophenyl)-1'-(1""-methylethyl)-3'-phenyl-1H-pyrazol-5'-yl]hept-6-enoate]",0.06 µM,–,–,0.05 mg/kg
"CC(C)n1nc(-c2ccccc2)c(-c2ccc(F)cc2)c1/C=C/[C@@H]1C[C@@H](O)CC(=O)O1 [Example 1, (E)-Trans-6S-(2'-[4""-(4'""-fluorophenyl)-1""-(1'""-methylethyl)-3""-phenyl-1H-pyrazol-5""-yl]ethenyl)-4R-hydroxy-3,4,5,6-tetrahydro-2H-pyran-2-one]",0.08 µM,–,–,–
